In patent US20250375440A1, “COMPOSITION AND METHOD OF TREATING CANCER ASSOCIATED WITH EGFR MUTATION” (BEYONDSPRING PHARMACEUTICALS, INC., priority 2018, published 2025):

Test system: NCI-H1975 Human Lung Cancer Xenograft
Assay: subcutaneous NCI-H1975 Human Lung Cancer Xenograft Model in Balb/c Nude Mice, tumor size
Type: in vivo, Mus Musculus (Balb/c nude mice)
Conditions: single agent
Protocol: The therapeutic efficacy of Osimertinib and Plinabulin were tested in vivo. The two drugs were tested as a single agent and in combination in the treatment of subcutaneous NCI-H1975 Human Lung Cancer Xenograft Model in Balb/c Nude Mice. The administration of the test articles and the animal numbers in each study group were shown in the following experimental design table 1. [table] Study endpoints: The major endpoints of the study include the followings: Tumor growth inhibition (TGI): TGI % was an indication of antitumor effectiveness, and expressed as: TGI (%)=100×(1-T/C). T and C were the mean tumor volume (or weight) of the treated and control groups, respectively, on a given day. The test uses 6-8 weeks female mice (species: Mus Musculus, Strain: Balb/c nude). The average body weight of the mice was 18-22 g. A total of 84 mice (60 plus 40% spare) were used. The animals were housed in individual ventilated cages (up to 5 mice per cage) under the following conditions: Temperature: 20˜26° C.; Humidity: 40-70%; Light cycle: 7:00 am-19:00 pm light and 19:00 pm-7:00 am (next day) darkness; Polysulfone IVC cage: size of 325 mm×210 mm×180 mm; Bedding material: corn cob; Diet: Mouse diet, Co60 irradiation sterilized dry granule food. Animals have free access during the entire study period; Water: Reverse osmosis (RO) water, autoclaved before using. […] The cells growing in an exponential growth phase were harvested and counted for tumor inoculation. […] Group assignment: Before grouping and treatment, all animals were weighed and the tumor volumes were measured using a caliper. […] During routine monitoring, the animals were checked for any effects of tumor growth and treatments on normal behavior such as mobility, visual estimation of food and water consumption, body weight gain/loss (body weights were measured twice per week), eye/hair matting and any other abnormal effect. […]

| Compound | tumor size change after tumor inoculation (Group 2, osimertinib 2.5 mg/kg p.o. QD x 5/wk) | tumor size change after tumor inoculation (Group 3, plinabulin 7.5 mg/kg i.p. BIW 2 wks) | tumor size change after tumor inoculation (Group 4, plinabulin 2.5 mg/kg i.p. BIW 2 wks) |
| --- | --- | --- | --- |
| C=CC(=O)Nc1cc(Nc2nccc(-c3cn(C)c4ccccc34)n2)c(OC)cc1N(C)CCN(C)C [osimertinib, reference compound] | control over the tumor size and slight increase in tumor size after the animals were tested for 15 days |  |  |
| CC(C)(C)c1[nH]cnc1/C=c1\[nH]c(=O)/c(=C/c2ccccc2)[nH]c1=O [plinabulin, (3Z,6Z)-3-Benzylidene-6-{[5-(2-methyl-2-propanyl)-1H-imidazol-4-yl]methylene}-2,5-piperazinedione] |  | tumor size increases | tumor size increases |
